Laboratory results from patent US8916681B2, “Compound, use and method” (Medical Research Council, priority 2007, dated 2014).
Non-standard residues stand in square brackets, D forms with d. Residues, ends and D or L forms follow the SMILES beside them.

Target: GPR54 (Homo sapiens, UniProt Q969F8)
Experiment: Inositol phosphate (IP) antagonism assay: inhibition of 10 nM kisspeptin-10 stimulation of IP in CHO/gpr-54 cells
Format: cell-based
Design: G. Vassart, Univ; Brussels
Settings: CHO cells, 10 nM kisspeptin-10; for IC50: unit inferred, given in M
Procedure: Inositol-3-phoshate Antagonistic Assay—Cell monolayers had 0.5 mls HEPES modified DMEM supplemented with […] for 30 mins at 37° C. to block IP3 breakdown. Cells were then stimulated with 0.25 mls 10 nM Kisspeptin-10 plus 0.25 mls of 10 nM Kisspeptin-10 or analogues (10 pM-10 uM) diluted at 1:1000 in the above media for 1 hr at 37° C., then in 10 mM Formic acid at 4° C. for 1 hr to lyse cells. Lysate was then transferred to plastic tubes containing 0.5 mls Dowex resin to bind the radioactive IP3 and the resin was then washed with 1 ml H2O. The resin was then washed with 60 mM NH4 formate/5 mM Sodium tetraborate followed by 1M NH4 formate/0.1M Formic acid to release the bound radiation. Then 800 μls of the radioactive solution were transferred to scintillation vials containing 2.5 mls scintillation fluid and radioactivity counted on a Beta counter for 60 seconds.
Chinese hamster ovary (CHO) cells stably-expressing the human gpr-54 receptor (CHO/gpr-54) were obtained from Prof. G. Vassart, Univ. Brussels. The cells were maintained in Dulbecco's modified Eagle's medium (DMEM; Sigma) supplemented with 10% fetal calf serum, 2% glutamine and 1% penicillin (10,000 units/ml)/streptomycin ([…]) at 37° C. in a humidified 5% CO2 atmosphere.
Experiments were repeated 3-5 times. IP production was plotted as mean values±SEM and analyzed using a Student's t-Test ([…]).

Sequence of GPR54 (Q969F8 whole entry): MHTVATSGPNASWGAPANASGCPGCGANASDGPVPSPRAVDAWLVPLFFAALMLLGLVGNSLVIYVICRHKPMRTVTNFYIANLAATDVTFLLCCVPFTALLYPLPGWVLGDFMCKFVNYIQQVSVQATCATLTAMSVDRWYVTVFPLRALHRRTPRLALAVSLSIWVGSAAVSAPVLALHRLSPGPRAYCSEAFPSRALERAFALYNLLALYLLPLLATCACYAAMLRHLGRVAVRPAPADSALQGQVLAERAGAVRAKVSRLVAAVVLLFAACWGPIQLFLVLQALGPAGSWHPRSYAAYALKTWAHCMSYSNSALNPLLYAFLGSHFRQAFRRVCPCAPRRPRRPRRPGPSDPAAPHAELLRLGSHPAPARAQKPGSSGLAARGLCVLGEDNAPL

| Compound | Inhibition of IP stimulation by 10 nM Agonist: % Inhibition of Max [%] | IC50 [nM] |
| --- | --- | --- |
| CC(=O)N[C@@H](CC(N)=O)C(=O)N[C@@H](CO)C(=O)N[C@@H](Cc1ccccc1)C(=O)NCC(=O)N[C@@H](CC(C)C)C(=O)N[C@@H](CCCNC(=N)N)C(=O)N[C@@H](Cc1ccccc1)C(N)=O [Peptide 186] (Ac-NSFGLRF-NH2) | 70 |  |
| CC(C)C[C@H](NC(=O)CNC(=O)[C@H](Cc1ccccc1)NC(=O)[C@H](CO)NC(=O)[C@H](CC(N)=O)NC(=O)[C@H](Cc1c[nH]c2ccccc12)NC(=O)[C@H](CC(N)=O)NC(=O)[C@@H](N)Cc1ccc(O)cc1)C(=O)N[C@@H](CCCNC(=N)N)C(=O)N[C@@H](Cc1c[nH]c2ccccc12)C(N)=O [Peptide 187] (H-YNWNSFGLRW-NH2) | 36 |  |
| CC(=O)N[C@@H](Cc1ccccc1)C(=O)NCC(=O)N[C@@H](CC(C)C)C(=O)N[C@@H](CCCNC(=N)N)C(=O)N[C@@H](Cc1ccccc1)C(N)=O [Peptide 188] (Ac-FGLRF-NH2) | 74 |  |
| CC(=O)N[C@@H](Cc1ccccc1)C(=O)NCC(=O)N[C@@H](CC(C)C)C(=O)N[C@@H](CCCNC(=N)N)C(=O)N[C@@H](Cc1c[nH]c2ccccc12)C(N)=O [Peptide 189] | 94 |  |
| CC(=O)N[C@@H](Cc1ccccc1)C(=O)NCC(=O)N[C@H](Cc1ccccc1)C(=O)N[C@@H](CCCNC(=N)N)C(=O)N[C@@H](Cc1c[nH]c2ccccc12)C(N)=O [Peptide 190] (Ac-FG[dF]RW-NH2) | 71 | 10 |
| CC(=O)N[C@@H](Cc1ccccc1)C(=O)NCC(=O)N[C@H](CC(C)C)C(=O)N[C@@H](CCCNC(=N)N)C(=O)N[C@@H](Cc1c[nH]c2ccccc12)C(N)=O [Peptide 191] | 79 |  |
| CC(=O)N[C@@H](Cc1ccccc1)C(=O)NCC(=O)N[C@@H](CC(C)C)C(=O)N[C@H](CCCNC(=N)N)C(=O)N[C@@H](Cc1c[nH]c2ccccc12)C(N)=O [Peptide 200] | 63 | 300 |
| CC(=O)N[C@@H](Cc1ccccc1)C(=O)NCC(=O)N[C@@H](C)C(=O)N[C@@H](CCCNC(=N)N)C(=O)N[C@@H](Cc1c[nH]c2ccccc12)C(N)=O [Peptide 201] (Ac-FGARW-NH2) | 69 | 7 |
| CC(=O)N[C@@H](C)C(=O)NCC(=O)N[C@@H](CC(C)C)C(=O)N[C@@H](CCCNC(=N)N)C(=O)N[C@@H](Cc1c[nH]c2ccccc12)C(N)=O [Peptide 202] (Ac-AGLRW-NH2) | 64 | 10 |
| CC(=O)N[C@H](Cc1ccccc1)C(=O)N[C@@H](Cc1c[nH]c2ccccc12)C(=O)N[C@@H](CC(C)C)C(=O)N[C@@H](CCCNC(=N)N)C(=O)N[C@@H](Cc1c[nH]c2ccccc12)C(N)=O [Peptide 203] (Ac-[dF]WLRW-NH2) | 71 | 0.1 |
| CC(=O)N[C@@H](Cc1ccccc1)C(=O)NCC(=O)N[C@H](Cc1c[nH]c2ccccc12)C(=O)N[C@@H](CCCNC(=N)N)C(=O)N[C@@H](Cc1ccccc1)C(N)=O [Peptide 206] (Ac-FG[dW]RF-NH2) | 68 | 10 |
| CC(C)C[C@H](NC(=O)CNC(=O)[C@H](Cc1ccccc1)NC(=O)CNC(=O)[C@H](CC(N)=O)NC(=O)[C@H](Cc1c[nH]c2ccccc12)NC(=O)[C@H](CC(N)=O)NC(=O)[C@@H](N)Cc1ccc(O)cc1)C(=O)N[C@@H](CCCNC(=N)N)C(=O)N[C@@H](Cc1ccccc1)C(N)=O [Peptide 208] (H-YNWNGFGLRF-NH2) | 55 | 1000 |
| CC(C)C[C@@H](NC(=O)CNC(=O)[C@H](Cc1ccccc1)NC(=O)CNC(=O)[C@H](CC(N)=O)NC(=O)[C@H](Cc1c[nH]c2ccccc12)NC(=O)[C@H](CC(N)=O)NC(=O)[C@@H](N)Cc1ccc(O)cc1)C(=O)N[C@@H](CCCNC(=N)N)C(=O)N[C@@H](Cc1ccccc1)C(N)=O [Peptide 209] (H-YNWNGFG[dL]RF-NH2) | 61 | 100 |
